How the values were obtained:
[1] = tested on: BV-2; assay: Anti-neuroinflammatory activity in mouse BV-2 cells assessed as inhibition of LPS-induced NO production; format: functional, cell-based
[2] = Cytotoxicity against mouse BV-2 cells assessed as cell viability at 25 uM by MTT assay; format: toxicity, cell-based; details: read-out: Activity
[3] = tested on: C6; assay: Neuroprotective activity in rat C6 cells assessed as NGF secretion level at 25 uM measured after 24 hrs by ELISA; format: functional
[4] = Cytotoxicity against rat C6 cells assessed as cell viability at 25 uM by MTT assay; format: toxicity, cell-based; details: read-out: Activity

SMILES	IC50 [1] [µM]	viability at 25 µM [2] [%]	Activity [3] [%]	viability at 25 µM [4] [%]
CNC(=N)NCCC[C@H](N)C(=O)O [TILARGININE]	27.2	104	–	–
OC[C@H]1O[C@@H](O[C@H]2c3ccc(O)cc3O[C@@H](c3ccc(O)cc3)[C@@H]2O)[C@H](O)[C@@H](O)[C@@H]1O	51.5	98.9	103.8	102
CCCCC/C=C/C(=O)CCc1ccc(O)c(OC)c1 [SHOGAOL]	–	–	118.5	116

Now from value to molecule, other results behind:

IC50 [1] [µM]	SMILES	viability at 25 µM [2] [%]	Activity [3] [%]	viability at 25 µM [4] [%]
36.9	COc1cc([C@@H]2Oc3cc(CCCO)cc(O)c3O[C@H]2CO)ccc1O	92.4	–	–
50.6	COc1cc([C@@H]2Oc3cc(CCCO)cc(O)c3O[C@H]2CO)ccc1O[C@@H]1O[C@H](CO)[C@@H](O)[C@H](O)[C@H]1O	95.9	107.6	99.2

Reference: ChEMBL document CHEMBL5120783, “Procyanidins and Phlobatannins from the Twigs of Rosa multiflora and Their Neuroprotective Activity” (J Nat Prod, 2022)
